Experimental data taken from patent US6608032B1, “Medicinal compositions” (Takara Shuzo Co., Ltd., priority 1999, dated 2003).

Columns and labels:
α-glucosidase [1] = experiment: α-glucosidase inhibition, crude enzyme preparation from rat small intestine mucous membrane; assay type: biochemical
Description: (§1) (2) A crude enzyme preparation obtained from rat small intestine mucous membrane prepared according to the method as described in Arne Dahlqvist, Anal. Biochem., 7:18-25 (1964) was used to measure the activity of inhibiting α-glucosidase of agarotetraose or agarohexaose prepared in Referential Example 1 in vitro as follows.
(§2) For the enzymatic reaction, 80 μl of a solution of sucrose, maltose, treharose or soluble starch as a substrate in 10 mM phosphate buffer (pH 7.0) at a final concentration of 100 mM (0.5% in case of soluble starch) was added to 10 μl of a test sample solution appropriately diluted with the same buffer. 10 μl of the crude enzyme solution prepared from rat small intestine was added thereto. The mixture was reacted at 37° C. for 20 minutes. The enzymatic activity was determined as follows as the amount of glucose generated in the reaction mixture: 3 ml of a reagent for glucose measurement (Wako Pure Chemical Industries) was added to the reaction mixture, reaction was carried out at 37° C. for 5 minutes, and then the absorbance at 505 nm was measured. The inhibitory activity on the digestion of each substrate was expressed as a remaining activity (%) against the control, which was calculated based on the activity measured as described above for each of four different concentrations. The remaining activities (%) on the respective substrates in the presence of agarotetraose are shown in Table 2, whereas the remaining activities (%) on the respective substrates in the presence of agarohexaose are shown in Table 3.

α-glucosidase [2] = biological target: α-glucosidase (Rattus norvegicus, UniProt P23739); experiment: as above; assay type: biochemical
Sequence of α-glucosidase (Rattus norvegicus, UniProt P23739) (P23739 whole entry): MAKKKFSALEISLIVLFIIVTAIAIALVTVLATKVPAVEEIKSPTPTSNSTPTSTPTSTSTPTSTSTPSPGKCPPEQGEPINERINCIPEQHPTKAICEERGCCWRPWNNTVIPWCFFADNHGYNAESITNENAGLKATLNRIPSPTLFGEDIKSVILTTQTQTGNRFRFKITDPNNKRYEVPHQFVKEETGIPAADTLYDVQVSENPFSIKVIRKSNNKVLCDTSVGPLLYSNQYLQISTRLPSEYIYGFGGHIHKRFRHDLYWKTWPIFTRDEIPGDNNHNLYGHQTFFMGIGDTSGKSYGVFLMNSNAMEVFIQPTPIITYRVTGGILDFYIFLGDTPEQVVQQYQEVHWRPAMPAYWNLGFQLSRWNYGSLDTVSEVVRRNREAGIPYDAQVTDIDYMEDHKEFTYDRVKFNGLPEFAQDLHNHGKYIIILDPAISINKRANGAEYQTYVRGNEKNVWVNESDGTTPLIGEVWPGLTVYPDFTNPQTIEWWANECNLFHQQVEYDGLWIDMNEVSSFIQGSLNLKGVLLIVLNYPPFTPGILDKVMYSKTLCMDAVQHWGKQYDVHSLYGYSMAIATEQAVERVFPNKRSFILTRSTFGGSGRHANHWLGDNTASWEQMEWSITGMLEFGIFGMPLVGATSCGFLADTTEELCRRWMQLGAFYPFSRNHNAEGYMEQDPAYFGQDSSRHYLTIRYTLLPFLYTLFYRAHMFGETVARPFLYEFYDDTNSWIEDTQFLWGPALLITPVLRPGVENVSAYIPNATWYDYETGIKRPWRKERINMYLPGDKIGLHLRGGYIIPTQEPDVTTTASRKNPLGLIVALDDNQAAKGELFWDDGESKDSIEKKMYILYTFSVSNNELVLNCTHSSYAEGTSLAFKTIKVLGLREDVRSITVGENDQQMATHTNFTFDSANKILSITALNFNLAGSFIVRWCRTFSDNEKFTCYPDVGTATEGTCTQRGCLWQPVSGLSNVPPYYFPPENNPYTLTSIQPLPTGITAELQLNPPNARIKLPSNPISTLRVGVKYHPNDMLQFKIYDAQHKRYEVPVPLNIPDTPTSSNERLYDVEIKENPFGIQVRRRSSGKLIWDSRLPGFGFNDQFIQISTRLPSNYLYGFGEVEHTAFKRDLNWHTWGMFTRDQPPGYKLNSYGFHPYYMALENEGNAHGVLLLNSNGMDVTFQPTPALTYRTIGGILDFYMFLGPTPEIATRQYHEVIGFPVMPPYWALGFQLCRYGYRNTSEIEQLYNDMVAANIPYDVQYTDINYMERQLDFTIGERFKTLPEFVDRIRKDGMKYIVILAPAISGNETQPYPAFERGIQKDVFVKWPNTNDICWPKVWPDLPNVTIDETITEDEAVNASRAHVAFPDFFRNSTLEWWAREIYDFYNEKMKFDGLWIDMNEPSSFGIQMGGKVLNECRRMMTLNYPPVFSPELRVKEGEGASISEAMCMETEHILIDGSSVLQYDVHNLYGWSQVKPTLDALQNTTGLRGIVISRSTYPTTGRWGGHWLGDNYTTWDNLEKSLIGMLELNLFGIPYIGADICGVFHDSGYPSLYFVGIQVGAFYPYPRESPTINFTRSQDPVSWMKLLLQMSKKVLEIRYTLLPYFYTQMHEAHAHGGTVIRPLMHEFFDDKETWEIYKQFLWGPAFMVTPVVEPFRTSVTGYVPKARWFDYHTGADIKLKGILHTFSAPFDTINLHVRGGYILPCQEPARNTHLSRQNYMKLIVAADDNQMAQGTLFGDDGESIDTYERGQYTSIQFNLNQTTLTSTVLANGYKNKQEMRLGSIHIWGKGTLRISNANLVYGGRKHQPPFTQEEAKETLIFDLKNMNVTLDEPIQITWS
Description: as §1, §2

heme oxygenase 1 protein = experiment: Heme oxygenase 1 induction in RAW264.7 cells (Western blot); assay type: cell-based; design: key: − represents no band observed; increase in the intensity of the band is represented as follows:+−<+<++; increase in the intensity of the band is represented as follows:+−<+<++; increase in the intensity of the band is represented as follows:+−<+<++; settings: 15 hours
Description: RAW264.7 cells (ATCC TIB 71) were suspended in Dulbecco's modified Eagle's medium (Bio Whittaker, 12-604F) containing 10% fetal calf serum (Gibco) at a concentration of 3×10^5 cells/ml. 5 ml of the suspension was added to each well of a 6-well microtiter plate and the plate was incubated at 37° C. overnight in the presence of 5% CO2. 50 μl of a solution containing agarobiose or agarohexaose in Referential Example 1 at a concentration of 20 mM, 10 mM or 5 mM in water was added to the well. The plate was incubated for 15 hours. A positive control for heme oxygenase 1 induction in which 5 μl of 3 mM solution of 15-deoxy-Δ12,14 prostaglandin J2 (Cayman Chemical, 18570) in dimethyl sulfoxide was added, and a negative control in which water was added were provided. The cells were recovered by detaching the cells from the plate using a scraper and suspended in 0.1 M tris-HCl buffer (pH 7.5) containing 0.05 mM pepstatin A (Sigma, P5318), 0.2 mM leupeptin (Sigma, L2884), 1 mM phenylmethylsulfonyl fluoride (Nacalai Tesque, 273-27), 10 mm ethylenediaminetetraacetic acid disodium salt and 0.1% Triton X-100. A supernatant obtained by centrifuging the suspension after freezing and thawing was used as a protein fraction. The content of protein in the protein fraction was determined using Micro BCA Protein Assay Reagent (a product of Pierce sold by Takara Shuzo, P7411). A sample from the protein fraction prepared as described above was mixed with an equal volume of 0.125 M tris-hydrochloride buffer (pH 6.8) containing 4% sodium lauryl sulfate (SDS), 2% 2-mercaptoethanol, 0.001% Bromophenol Blue and 20% glycerol. After treatment at 100° C. for 5 minutes, a portion corresponding to 10 μg of protein was loaded on 12.5% SDS-polyacrylamide gel and electrophoresed at a constant current of 20 mA. After electrophoresis, the gel was transferred to a PVDF membrane (Millipore, IPVH000 10) at a constant voltage of 15 V for 25 minutes using a blotting buffer (containing 48 mM tris, 39 mM glycine, 20% methanol and 0.0375% SDS) and Trans-Blot SD Cell Semi-Dry blotting apparatus (Bio-Rad) according to the attached protocol. After transferring, the PVDF membrane was blocked in a solution of Block Ace (Dainippon Pharmaceutical, UK-B25) at 4° C. overnight. After blocking, the membrane washed three times in phosphate buffered saline containing 0.1% Tween 20 for 15 minutes with gentle shaking. The membrane was reacted in phosphate buffered saline containing 10% Block Ace, 0.1% Tween 20 and 200 ng/ml of anti-heme oxygenase 1 antibody (N-19; Santa Cruz, sc-7696) at room temperature for 1 hour with gentle shaking, and then washed three times in phosphate buffered saline containing 0.1% Tween 20 for 15 minutes with gentle shaking. The membrane was reacted in phosphate buffered saline containing 10% Block Ace, 0.1% Tween 20 and 0.1% peroxidase-labeled rabbit anti-goat IgG (H+L) antibody (Zymed, 61-1620) at room temperature for 1 hour with gentle shaking, and then washed five times in phosphate buffered saline containing 0.1% Tween 20 for 15 minutes with gentle shaking. The PVDF membrane was stained using Western Blot Chemiluminescence Reagent Plus (a product of NEN Life Science Products sold by Daiichi Pure Chemicals, NEL103) according to the attached protocol and exposed to an X-ray film (Kodak, CAT165 1454). After exposure, the film was developed using FPM800 (Fuji Film).
The intensity of the band depended on the concentration of agarobiose or agarohexaose. In the table, the intensity of the band for heme oxygenase 1 protein is expressed by the mark+. Specifically, − represents no band observed, and increase in the intensity of the band is represented as follows:+−<+<++.

[3] = substrate Soluble starch, 0.2 mM
[4] = substrate Soluble starch, 0.5 mM
[5] = substrate Soluble starch, 1.0 mM
[6] = substrate Soluble starch, 2.0 mM

Compound	Remaining activity (%) (α-glucosidase [1]; substrate Maltose, 0.2 mM)	Remaining activity (%) (α-glucosidase [1]; substrate Maltose, 0.5 mM)	Remaining activity (%) (α-glucosidase [1]; substrate Maltose, 1.0 mM)	Remaining activity (%) (α-glucosidase [1]; substrate Maltose, 2.0 mM)	Remaining activity (%) (α-glucosidase [1]; [3])	Remaining activity (%) (α-glucosidase [1]; [4])	Remaining activity (%) (α-glucosidase [1]; [5])	Remaining activity (%) (α-glucosidase [1]; [6])	Remaining activity (%) (α-glucosidase [1]; substrate Trehalose, 0.2 mM)	Remaining activity (%) (α-glucosidase [1]; substrate Trehalose, 0.5 mM)	Remaining activity (%) (α-glucosidase [1]; substrate Trehalose, 1.0 mM)	Remaining activity (%) (α-glucosidase [1]; substrate Trehalose, 2.0 mM)	remaining activity at 200 µM (α-glucosidase [2]) [%]	remaining activity at 500 µM (α-glucosidase [2]) [%]	remaining activity at 1000 µM (α-glucosidase [2]) [%]	remaining activity at 2000 µM (α-glucosidase [2]) [%]	Intensity of band for heme oxygenase 1 protein (heme oxygenase 1 protein; final concentration of 50 μM)	Intensity of band for heme oxygenase 1 protein (heme oxygenase 1 protein; final concentration of 100 μM)	Intensity of band for heme oxygenase 1 protein (heme oxygenase 1 protein; final concentration of 200 μM)
OCC1OC(OC2C3COC2C(O)C(OC2C(O)C(CO)OC(OC4C5COC4C(O)C(O)O5)C2O)O3)C(O)C(O)C1O (centres unmarked) [Agarotetraose, agarotetraose]	97	95	100	98	100	96	97	91	100	100	100	93	92	85	83	72	–	–	–
OCC1OC(OC2C3COC2C(O)C(OC2C(O)C(CO)OC(OC4C5COC4C(O)C(OC4C(O)C(CO)OC(OC6C7COC6C(O)C(O)O7)C4O)O5)C2O)O3)C(O)C(O)C1O (centres unmarked) [Agarohexaose, agarohexaose]	98	100	91	92	100	97	96	97	100	100	100	93	92	85	81	70	+−	+	++
OC[C@H]1O[C@@H](O[C@H]2[C@H]3OC[C@@H]2OC(O)[C@H]3O)[C@H](O)[C@@H](O)[C@H]1O (mixture of isomers) [Agarobiose, agarobiose]	–	–	–	–	–	–	–	–	–	–	–	–	–	–	–	–	+−	+	++
